Counter-ions that a name gives are not always drawn.
Assays:
[1] = target: KRAS^G12D binding to c-Raf (Homo sapiens (Human), UniProt P01116, G12D); test: SOS1-mediated binding of KRAS^G12D to effector protein c-Raf (TR-FRET); format: biochemical
[2] = system: p-ERK in GP2D cells; test: Assay of p-ERK inhibition in GP2D cells (HTRF); format: cell-based; conditions: Homo sapiens, 1 hour incubation
Protocol: 2. Assay Process • 1) GP2D cells were inoculated in a transparent 96-well cell culture plate, and each well contained 80 μL of cell suspension and 8000 cells. The cell plate was inoculated in a carbon dioxide incubator at 37° C. overnight; • 2) 2 μL of the compound was weighed and added to 78 μL of the cell medium. After the mixture was mixed thoroughly, 20 μL of the solution of compound was weighed and added to the corresponding well of the cell plate. The cell plate was placed back to the carbon dioxide incubator and incubated for another 1 hour; • 3) After completion of the incubation, the cell supernatant was discarded. 50 μL of 1× cell lysate was added to each well. The mixture was incubated with shaking at room temperature for 30 minutes; • 4) Phospho-ERK1/2 Eu Cryptate antibody and Phospho-ERK1/2 d2 antibody were diluted 20-fold with detection buffer; • 5) 16 μL of cell lysate supernatant was weighed and added into each well of a new 384 white microwell plate, and then 2 μL of the diluted solution of Phospho-ERK1/2 Eu Cryptate antibody and 2 μL of the diluted solution of Phospho-ERK1/2 d2 antibody dilution were added. The mixture was incubated at room temperature for at least 4 hours; • 6) After completion of the incubation, HTRF was read with multi-label analyzer: excitation: 320 nm, emission: 615 nm, 665 nm; • 7). IC50 of the compounds to be assayed was calculated.

[3] = target: KRAS^G12D (Homo sapiens (Human), UniProt P01116, G12D); test: Assay of the activity of inhibiting KRAS^G12D (TR-FRET, SOS/GTP nucleotide exchange); format: biochemical
[4] = system: p-ERK in AGS cells; test: Assay of p-ERK inhibition in AGS cells (HTRF); format: cell-based; conditions: Homo sapiens, 3 hours incubation
Protocol: 1) AGS cells were inoculated in a transparent 96-well cell culture plate, and each well contained 80 μL of cell suspension and 10000 cells. The cell plate was inoculated in a carbon dioxide incubator at 37° C. overnight; • 2) After completion of the incubation, the cell supernatant was discarded. 80 μL of medium containing 0.02% serum was added to each well. The cell plate was incubated in a carbon dioxide incubator at 37° C. overnight; • 3) 2 μL of the compound was weighed and added to 78 μL of the cell medium. After the mixture was mixed thoroughly, 20 μL of the solution of compound was weighed and added to the corresponding well of the cell plate. The cell plate was placed back to the carbon dioxide incubator and incubated for another 3 hours; • 4) After completion of the incubation, the cell supernatant was discarded. 50 μL of 1× cell lysate was added to each well. The mixture was incubated with shaking at room temperature for 30 minutes; • 5) Phospho-ERK1/2 Eu Cryptate antibody and Phospho-ERK1/2 d2 antibody were diluted 20-fold with detection buffer; • 6) 16 μL of cell lysate supernatant was weighed and added into each well of a new 384 white microwell plate, and then 2 μL of the diluted solution of Phospho-ERK1/2 Eu Cryptate antibody and 2 μL of the diluted solution of Phospho-ERK1/2 d2 antibody dilution were added. The mixture was incubated at room temperature for at least 4 hours; • 7) After completion of the incubation, HTRF was read with multi-label analyzer: excitation: 320 nm, emission: 615 nm, 665 nm; • 8). IC50 of the compounds to be assayed was calculated.

[5] = system: KRAS G12D mutated GP2D cells; test: Assay of inhibition of GP2D cell proliferation (CellTiter-Glo 3D); format: cell-based; conditions: Homo sapiens, 120 h, 5 days
Protocol: The aim of this assay was to verify the inhibitory effect of the compounds of the present disclosure on the proliferation of KRAS G12D mutated GP2D human […] cancer cells.
Cell line GP2D, DMEM medium, and penicillin/streptomycin antibiotics were purchased from Wisent; fetal bovine serum was purchased from Biosera; and CellTiter-Glo® 3D Cell Viability Assay (3D cell viability chemiluminescence assay reagent) reagent was purchased from Promega.
GP2D cells were seeded in a 96-well U-bottom cell culture plate. Each well contained 80 μL of cell suspension containing 2000 GP2D cells. The cell plate was incubated overnight in a CO2 incubator. The compound to be assayed was serially diluted 5-fold with a pipette to the 8th concentration, i.e. diluted from 200 μM to 2.56 nM, to set up a double replicate well assay. 78 μL of medium was added to the middle plate, and then 2 μL per well of the gradient dilution compound was transferred to the middle plate according to the corresponding position. The mixture was mixed well and 20 μL per well was transferred to the cell plate. The concentration of compound transferred to the cell plate ranged from 1 μM to 0.0128 nM. The cell plate was incubated in a CO2 incubator for 5 days. At the end of the incubation of the plate with compounds added, 100 μL of cell viability chemiluminescence detection reagent per well was added to the plate and the plate was incubated at room temperature for 10 minutes to stabilize the luminescence signal. Reading was performed using a multi-label analyzer.
The raw data were converted into an inhibition rate by using an equation (Sample−Min)/(Max−Min)*100%. IC50 value can be obtained by curve fitting with four parameters (“log(inhibitor) vs. response—Variable slope” model in GraphPad Prism).

[6] = Pharmacokinetic evaluation of compounds in mice; format: in vivo, CD-1 mice; conditions: CD-1 male mice
Protocol: Purpose of assay: To assay the pharmacokinetic data of the compounds in CD-1 mice in vivo.
(§1) Compounds were mixed with vehicle 5% DMSO/95% (10% HP-β-CD aqueous solution), and the mixture was vortexed and sonicated to give 0.2 mg/mL-0.3 mg/mL clear solutions. CD-1 male mice aged 7 to 10 weeks were selected, and the candidate compound solution was administered intravenously. Whole blood was collected for a certain period of time to prepare the plasma. The drug concentration was analyzed by LC-MS/MS method and pharmacokinetic parameters were calculated by Phoenix WinNonlin software (Pharsight, USA).
as §1, with “in water),” for “aqueous solution),”, “1.6 mg/mL to 4.0” for “0.2 mg/mL-0.3”, “orally administered.” for “administered intravenously.”, “prepare” for “prepare the”, “method,” for “method”

[7] = system: plasma protein; test: Plasma protein binding (PPB), equilibrium dialysis, C plasma; format: in vitro ADME, monkey; conditions: 2 μM, 4 hr dialysis
Protocol: (§2) Assay procedure: 995 μL of blank plasma of various genera were weighed, and 5 μL of assay compound working solution (400 μM) or warfarin working solution (400 μM) was added so that the final concentrations of the assay compound and warfarin in plasma sample were each 2 μM. The samples were mixed thoroughly. The final concentration of DMSO (the organic phase) was 0.5%. 50 μL of the plasma samples of the assay compound and warfarin were pipetted to a sample receiving plate (in triplicate), and the corresponding volume of corresponding blank plasma or buffer was added immediately, so that the final volume in each sample well was 100 μL, wherein the volume ratio of plasma:dialysis buffer was 1:1. 500 μL of stop solution was then added to these samples. These samples were used as T0 samples for determination of recovery and stability. […] All samples were subjected to protein precipitation, and then analyzed by LC/MS/MS. Bound rate and recovery rate of protein were calculated using the following formulae: % Unbound=100*F/T % Bound=100−% Unbound, % Recovery=100*(F+T)/T0 (wherein F is the peak area ratio of the compound in the dialysate after 4 h of dialysis; T is the peak area ratio of the compound in the plasma after 4 h of dialysis; T0 is the peak area ratio of the compound in the plasma sample at time zero).

[8] = system: plasma protein; test: Plasma protein binding (PPB), equilibrium dialysis, M plasma; format: in vitro ADME, mouse; conditions: 2 μM, 4 hr dialysis
Protocol: as §2

[9] = system: plasma protein; test: Plasma protein binding (PPB), equilibrium dialysis, R plasma; format: in vitro ADME, rat; conditions: 2 μM, 4 hr dialysis
Protocol: as §2

[10] = system: plasma protein; test: Plasma protein binding (PPB), equilibrium dialysis, D plasma; format: in vitro ADME, dog; conditions: 2 μM, 4 hr dialysis
Protocol: as §2

[11] = system: plasma protein; test: Plasma protein binding (PPB), equilibrium dialysis, H plasma; format: in vitro ADME, human; conditions: 2 μM, 4 hr dialysis
Protocol: as §2

Sequence of KRAS^G12D (P01116-2 other isoform, or with tags, fused parts or gaps G12D): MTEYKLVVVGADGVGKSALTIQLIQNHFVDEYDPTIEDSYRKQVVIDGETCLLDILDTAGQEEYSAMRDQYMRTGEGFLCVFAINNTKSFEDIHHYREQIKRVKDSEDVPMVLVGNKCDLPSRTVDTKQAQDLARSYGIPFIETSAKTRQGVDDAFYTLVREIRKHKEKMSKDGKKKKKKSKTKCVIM
Sequence of KRAS^G12D binding to c-Raf (P01116-2 other isoform, or with tags, fused parts or gaps G12D): as above

For `C#Cc1c(F)ccc2cc(N)cc(-c3c(Cl)cc4c(N5CC6CCC(C5)N6)nc(OC[C@@]56CCCN5C[C@H](F)C6)nc4c3F)c12` (single isomer, unassigned) [Compound 016B], the IC50 [1] was 6.23 nM and the IC50 [2] was 0.67 nM.
`Oc1cc(-c2c(Cl)cc3c(N4CC5CCC(C4)N5)nc(OC[C@@]45CCCN4C[C@H](F)C5)nc3c2F)c2ccccc2c1` (single isomer, unassigned) [Compound 027 hydrochloride] showed an IC50 [3] of 38.6 nM.
Compound `Oc1cc(-c2c(Cl)cc3c(N4CC5CCC(C4)N5)nc(OC[C@@]45CCCN4C[C@H](F)C5)nc3c2F)c2ccccc2c1` [Compound 001 formate] has an IC50 [3] of 9.2 nM and an IC50 [4] of 292 nM.
`Nc1nc2c(-c3c(Cl)cc4c(N5CC6CCC(C5)N6)nc(OC[C@@]56CCCN5C[C@H](F)C6)nc4c3F)ccc(F)c2s1` [Compound 004] showed an IC50 [3] of 0.5 nM and an IC50 [4] of 31.4 nM.
For `Oc1cc(-c2ccc3c(N4CC5CCC(C4)N5)nc(OC[C@@]45CCCN4C[C@H](F)C5)nc3c2F)c2ccccc2c1` [Compound 005 hydrochloride], the IC50 [3] was 0.1 nM and the IC50 [4] was 147 nM.
With `CCc1c(F)ccc2cc(O)cc(-c3ccc4c(N5CC6CCC(C5)N6)nc(OC[C@@]56CCCN5C[C@H](F)C6)nc4c3F)c12` [Compound 006 hydrochloride] the IC50 [5] was 2.04 nM and the IC50 [4] was 67.1 nM.
In the case of `Nc1nc2c(-c3c(F)cc4c(N5CC6CCC(C5)N6)nc(OC[C@@]56CCCN5C[C@H](F)C6)nc4c3Cl)ccc(F)c2s1` [Compound 007 hydrochloride], the IC50 [3] is reported as 0.4 nM.
Work on `Oc1cc(-c2c(F)cc3c(N4CC5CCC(C4)N5)nc(OC[C@@]45CCCN4C[C@H](F)C5)nc3c2Cl)c2ccccc2c1` [Compound 008 hydrochloride] yielded an IC50 [3] of 1.3 nM.
`C#Cc1c(F)ccc2cc(O)cc(-c3ccc4c(N5CC6CCC(C5)N6)nc(OC[C@@]56CCCN5C[C@H](F)C6)nc4c3F)c12` [Compound 010 hydrochloride] showed an AUCu ([6]; PO, 5.54 mg/kg, AUCu = AUC0-inf *Unbound PPB (Mouse)) of 0.0025 µM·h, an AUC(0-inf) ([6]; mouse, plasma, PO, 5.54 mg/kg) of 0.125 µM·h and a Cmax ([6]; mouse, plasma, PO, 5.54 mg/kg) of 54 nM. It also gave a bioavailability ([6]; mouse, plasma, PO, 5.54 mg/kg) of 5.1%, a half-life ([6]; mouse, plasma, PO, 5.54 mg/kg) of 1.6 h and an IC50 [5] of 3.6 nM. The IC50 [2] was 0.055 nM.
With `C#Cc1c(F)ccc2cc(O)cc(-c3ccc4c(N5CC6CCC(C5)N6)nc(OC[C@@]56CCCN5C[C@H](F)C6)nc4c3F)c12` [Compound 010] the “Unbound PPB C” value [7] was 1.9%, the “Unbound PPB M” value [8] was 2.0% and the “Unbound PPB R” value [9] was 1.3%. For the same compound, the AUC(0-inf) ([6]; mouse, plasma, IV, 1.03 mg/kg) was 0.457 µM·h, the C0 ([6]; mouse, plasma, IV, 1.03 mg/kg) was 712 nM and the Vd ([6]; mouse, plasma, IV, 1.03 mg/kg) was 25 L/kg. The clearance ([6]; mouse, plasma, IV, 1.03 mg/kg) was 61.4 mL/min/kg, the half-life ([6]; mouse, plasma, IV, 1.03 mg/kg) was 8.1 h and the “Unbound PPB D” value [10] was 2.2%. For the same compound, the “Unbound PPB H” value [11] was 2.9%.
Compound `Oc1cc(-c2ccc3c(N4CC5CCC(C4)N5)nc(OC[C@@]45CCCN4C[C@H](F)C5)nc3c2F)c2c(F)c(F)ccc2c1` [Compound 011 hydrochloride] has an IC50 [5] of 6.2 nM and an IC50 [2] of 0.016 nM.
With `N#Cc1c(N)sc2c(F)ccc(-c3c(Cl)cc4c(N5CC6CCC(C5)N6)nc(OC[C@@]56CCCN5C[C@H](F)C6)nc4c3F)c12` [Compound 012 formate] the IC50 [5] was 0.94 nM and the IC50 [2] was 0.71 nM.
Work on `Nc1cc(-c2ccc3c(N4CC5CCC(C4)N5)nc(OC[C@@]45CCCN4C[C@H](F)C5)nc3c2F)c2c(F)c(F)ccc2c1` [Compound 013 hydrochloride] yielded an IC50 [2] of 0.88 nM.
For `Cc1cc(N)nc(-c2c(Cl)cc3c(N4CC5CCC(C4)N5)nc(OC[C@@]45CCCN4C[C@H](F)C5)nc3c2F)c1C(F)(F)F` [Compound 018 trifluoroacetate], the IC50 [2] was 1.6 nM.
In the case of `Cc1cc(N)nc(-c2ccc3c(N4CC5CCC(C4)N5)nc(OC[C@@]45CCCN4C[C@H](F)C5)nc3c2F)c1C(F)(F)F` [Compound 019 hydrochloride], the IC50 [2] is reported as 21.4 nM.
Work on `Nc1nc2c(-c3c(F)cc4c(N5CC6CCC(C5)N6)nc(OC[C@@]56CCCN5C[C@H](F)C6)nc4c3F)ccc(F)c2s1` [Compound 020 formate] yielded an IC50 [3] of 6.6 nM.
Work on `Cc1cc(N)c(F)c(-c2c(Cl)cc3c(N4CC5CCC(C4)N5)nc(OC[C@@]45CCCN4C[C@H](F)C5)nc3c2F)c1C(F)(F)F` [Compound 022 formate] yielded an IC50 [2] of 11.6 nM.
For `CCc1c(F)ccc2cc(O)cc(-c3ccc4c(N5CC6CCC(C5)N6)nc(OC[C@@]56CCCN5C[C@H](F)C6)nc4c3Cl)c12` [Compound 024 formate], the IC50 [5] was 16 nM and the IC50 [2] was 4.4 nM.
`C#Cc1c(F)ccc2cc(N)cc(-c3c(F)cc4c(N5CC6C=CC(C5)N6)nc(OC[C@@]56CCCN5C[C@H](F)C6)nc4c3F)c12` [Compound 034] gave an IC50 [1] of 22.5 nM.

Reference: patent publication US20240174692A1, “PYRIMIDINE AROMATIC RING COMPOUNDS” (Medshine Discovery Inc., priority 2021, published 2024)
